# Measured values published in US10751338B2, “Sustained-release voriconazole-containing thermogel and uses thereof” (priority 2017, dated 2020).
# What was measured:
# [1] = tested on: common equine fungal pathogens; details: target MIC; cited from earlier work
# [2] = In vitro release of voriconazole from the thermogel (Example 5); type: physicochemical
# Experimental: Each formulation was tested in triplicate.
# The injection volume was 100 μl.
# [3] = Ex-vivo trans-corneal fluorescein permeation, Franz diffusion cell (Example 4); type: in vitro ADME, horse; details: 10 μM sodium fluorescein, 6 hours, 37° C.
# Experimental: Fresh equine corneas used in the experiment were obtained from horses enrolled in terminal laboratories performed at the AULATH. Corneoscleral buttons (16 mm diameter) were dissected using standard eye bank technique within 2 hours of enucleation. Fluorescent permeation experiments using a Franz diffusion cell method were performed to examine the integrity of the epithelial barrier function during the times studied (2 and 6 hours). Corneas were mounted horizontally between the donor and the receiving compartments of the diffusion cells (exposure window 0.64 cm^2), which were maintained at 37° C. (see FIGS. 8A and 8B).
# Samples (1 ml PBS pH 7.4) were removed from the receiving compartment hourly and replaced with fresh receiving fluid. The fluorescent intensities of the receiving solution samples were analyzed using a microplate spectrofluorometer (Fluostar, BMG Labtech, Ortenberg, Germany) and a 96 well plate (Costar, Corning, N.Y.). A standard solution of NaF was prepared in PBS with a concentration range of 30 μg/ml to 0.12 μg/ml. Fluorescence was determined in a spectrofluorometer at excitation and emission wavelengths of 490 nm and 512 nm, respectively. All groups were tested in triplicate. The results were expressed as mean value±standard error of the mean (SEM).
smiles,measurement,setting,value
C[C@@H](c1ncncc1F)[C@](O)(Cn1cncn1)c1ccc(F)cc1F [voriconazole],MIC,[1],0.5 µg/mL
"C[C@@H](c1ncncc1F)[C@](O)(Cn1cncn1)c1ccc(F)cc1F [Group 6, voriconazole]",Day by which voriconazole was undetectable,[2]; PBS samples,≤ 6 days
same,UC24,"[2]; mean, PBS, 34.5° C.",4133 µg·days/mL
same,UC28,"[2]; mean, PBS, 34.5° C.",4135 µg·days/mL
same,K release,"[2]; mean, first-order release",0.7558 day⁻¹
"O=C1OC2(c3ccc(O)cc3Oc3cc(O)ccc32)c2ccccc21 [fluorescein, sodium fluorescein]",Fluorescein concentration in receiving compartment versus negative control,[3],not significantly different
